Counter-ions that a name gives are not always drawn.
Tests used:
sodium channel = assay: Guanidine influx assay (14C-guanidine radiotracer flux, in vitro); type: cell-based, human or rat; settings: guanidine influx assay using a known cell line that expresses a sodium channel
Source text: This example describes an in vitro assay for testing and profiling test agents against human or rat sodium channels stably expressed in cells of either an endogenous or recombinant origin. The assay is also useful for determining the IC50 of a sodium channel blocking compound. The assay is based on the guanidine flux assay described by Reddy, N. L., et al., J. Med. Chem. (1998), 41(17):3298-302.
The guanidine influx assay is a radiotracer flux assay used to determine ion flux activity of sodium channels in a high-throughput microplate-based format. The assay uses ^14C-guanidine hydrochloride in combination with various known sodium channel modulators, to assay the potency of test agents. Potency is determined by an IC50 calculation. Selectivity is determined by comparing potency of the compound for the channel of interest to its potency against other sodium channels (also called ‘selectivity profiling’).
Each of the test agents is assayed against cells that express the channels of interest. Voltage gated sodium channels are either TTX sensitive or insensitive. This property is useful when evaluating the activities of a channel of interest when it resides in a mixed population with other sodium channels. The following Table 1 summarizes cell lines useful in screening for a certain channel activity in the presence or absence of TTX.
It is also possible to employ recombinant cells expressing these sodium channels. Cloning and propagation of recombinant cells are known to those skilled in the art (see, for example, Klugbauer, N, et al., EMBO J. (1995), 14(6):1084-90; and Lossin, C., et al., Neuron (2002), 34, pp. 877-884).
Cells expressing the channel of interest are grown according to the supplier or in the case of a recombinant cell in the presence of selective growth media such as G418 (Gibco/Invitrogen). The cells are disassociated from the culture dishes with an enzymatic solution (Ix) Trypsin/EDTA (Gibco/Invitrogen) and analyzed for density and viability using haemocytometer (Neubauer). Disassociated cells are washed and resuspended in their culture media then plated into Scintiplates (Beckman Coulter Inc.) (approximately 100,000 cells/well) and incubated at 37° C./5% CO2 for 20-24 hours. After an extensive wash with Low sodium HEPES-buffered saline solution (LNHBSS) (150 mM Choline Chloride, […] (Sigma), 1 mM Calcium Chloride, 5 mM Potassium Chloride, 1 mM Magnesium Chloride, 10 mM Glucose) agents diluted with LNHBSS are added to each well. (Varying concentrations of test agent may be used). The activation/radiolabel mixture contains aconitine (Sigma) to increase the percentage of time that the sodium channels are open, and ^14C-guanidine hydrochloride (ARC) to measure flux through the voltage-gated sodium channels.
After loading the cells with test agent and activation/radiolabel mixture, the Scintiplates are incubated at ambient temperature. Following the incubation, the Scintplates are extensively washed with LNHBSS supplemented with guanidine (Sigma). The Scintiplates are dried and then counted using a Wallac MicroBeta TriLux (Perkin-Elmer Life Sciences). The ability of the test agent to block sodium channel activity is determined by comparing the amount of ^14C-guanidine present inside the cells expressing the different sodium channels.
The IC50 value of a test agent for a specific sodium channel may be determined using the above general method. […] Typically the mid-point concentration of test agent is set at 1 μM, and sequential concentrations of half dilutions greater or smaller are applied (e.g. 0.5 μM; 5 μM and 0.25 μM; 10 μM and 0.125 μM; 20 μM etc.). The IC50 curve is calculated using the 4 Parameter Logistic Model or Sigmoidal Dose-Response Model formula (fit=(A+((B−A)/(1+((C/x)^D)))).
The fold selectivity, factor of selectivity or multiple of selectivity, is calculated by dividing the IC50 value of the test sodium channel by the reference sodium channel, for example, Nav1.5. […]

CYP3A4 = CYP3A4 (Homo sapiens, UniProt P08684); assay: Cytochrome P450 (CYP450) Inhibition Assay, CYP3A4 (Vivid fluorescence, BOMCC substrate); settings: for inhibition at 10 µM: human, P450 Baculosomes (recombinant CYP3A4), probe BOMCC (Vivid substrate)
Chain of CYP3A4 (P08684 whole entry): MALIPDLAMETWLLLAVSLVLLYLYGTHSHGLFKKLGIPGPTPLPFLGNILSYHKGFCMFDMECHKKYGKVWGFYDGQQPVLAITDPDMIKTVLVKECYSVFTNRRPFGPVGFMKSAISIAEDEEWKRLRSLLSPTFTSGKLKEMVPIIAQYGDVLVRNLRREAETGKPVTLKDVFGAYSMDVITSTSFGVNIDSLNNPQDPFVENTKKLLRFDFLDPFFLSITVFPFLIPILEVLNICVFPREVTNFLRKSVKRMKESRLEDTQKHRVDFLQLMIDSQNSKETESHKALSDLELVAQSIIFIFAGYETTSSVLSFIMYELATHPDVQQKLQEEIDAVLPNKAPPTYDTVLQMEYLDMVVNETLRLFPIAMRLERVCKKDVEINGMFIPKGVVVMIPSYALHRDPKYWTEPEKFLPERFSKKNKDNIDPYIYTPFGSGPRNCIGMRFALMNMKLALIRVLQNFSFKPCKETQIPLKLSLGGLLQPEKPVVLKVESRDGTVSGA

Structure (SMILES)	IC50 (sodium channel) [nM]	inhibition at 10 µM (CYP3A4) [%]	IC50 (sodium channel; activity level class) [nM]	% Inhibition of CYP3A4 (CYP3A4; at 10 μM)
CN1CCN(CN2C(=O)C3(COc4cc5c(cc43)OCO5)c3ccccc32)CC1 (stereo not shown) [Example 11.63, 1′-[(4-methylpiperazin-1-yl)methyl]spiro[furo[2,3-f][1,3]benzodioxole-7,3′-indol]-2′(1′H)-one hydrogen chloride]	1 to 100	> 50		
O=C1N(Cc2cccc(OC(F)(F)F)c2)c2ccccc2C12COc1cc3c(cc12)OCCO3 (stereo not shown) [Example 7.24, 1′-[(3-trifluoromethoxy)benzyl]-2,3-dihydrospiro[furo[2,3-g][1,4]benzodioxine-8,3′-indol]-2′(1′H)-one]		> 50	1 to 100	
O=C1Nc2ccc3ncsc3c2C12COc1cc3c(cc12)OCCO3 (stereo not shown) [Example 3.49, 2,3-dihydrospiro[furo[2,3-g][1,4]benzodioxine-8,8′-[1,3]thiazolo[5,4-e]indol]-7′(6′H)-one]		> 50	1000 to 10000	
O=C(NCC1CCCCC1)c1cccc(CN2C(=O)C3(COc4cc5c(cc43)CCO5)c3ccccc32)c1 (stereo not shown) [Example 12, N-(cyclohexylmethyl)-3-[(2′-oxo-5,6-dihydrospiro[benzo[1,2-b:5,4-b′]difuran-3,3′-indol]-1′(2′H)-yl)methyl]benzamide]	100 to 1000	> 50		
CC(C)NC(=O)c1coc(CN2C(=O)C3(COc4cc5c(cc43)OCO5)c3ccccc32)n1 (stereo not shown) [Example 13.6, N-(1-methylethyl)-2-[(2′-oxospiro[furo[2,3-f][1,3]benzodioxole-7,3′-indol]-1′(2′H)-yl)methyl]-1,3-oxazole-4-carboxamide]	1 to 100	> 50		
O=C1N(CC2CCOCC2)c2ccccc2C12COc1cc(F)c(F)cc12 (stereo not shown) [Example 9.65, 5,6-difluoro-1′-(tetrahydro-2H-pyran-4-ylmethyl)spiro[1-benzofuran-3,3′-indol]-2′(1′H)-one]	1000 to 10000	< 50		
CN1CCC(CN2C(=O)C3(COc4cc5c(cc43)OCCO5)c3ccccc32)CC1 (stereo not shown) [Example 11.101, 1-[(1-methylpiperidin-4-yl)methyl]-2,3-dihydrospiro[furo[2,3-g][1,4]benzodioxine-8,3′-indol]-2′(1′H)-one hydrochloride]	1000 to 10000	< 50		
CNC(=O)c1ccc(CN2C(=O)C3(COc4cc5c(cc43)CCO5)c3ccccc32)cc1 (stereo not shown) [Example 12.28, N-methyl-4-[(2′-oxo-5,6-dihydrospiro[benzo[1,2-b:5,4-b′]difuran-3,3′-indol]-1′(2′H)-yl)methyl]benzamide]	100 to 1000	> 50		
O=C1N(Cc2ccccn2)c2ccccc2C12COc1cc3c(cc12)S(=O)(=O)C=C3 (stereo not shown) [Example 5.31, 1-(pyridin-2-ylmethyl)spiro[indole-3,3′-thieno[2,3-f][1]benzofuran]-2(1′H)-one 5,5′-dioxide]		< 50	1000 to 10000	
O=C1Nc2ccccc2C12COc1cc3c(cc12)S(=O)(=O)C=C3 (stereo not shown) [Example 3.40, spiro[indole-3,3′-thieno[2,3-f][1]benzofuran]-2(1′H)-one 5,5′-dioxide]		< 50	1000 to 10000	
CN1C(=O)C2(COc3cc4c(cc32)OCCO4)c2c(Oc3ccc4c(c3)OCO4)cccc21 (stereo not shown) [Example 16.83, 4′-(1,3-benzodioxol-5-yloxy)-1′-methyl-2,3-dihydrospiro[furo[2,3-g][1,4]benzodioxine-8,3′-indol]-2′(1′H)-one]		> 50		
O=C1Nc2ccccc2C12COc1ccc(F)cc12 (stereo not shown) [Example 3.8, 5-fluoro-spiro[1-benzofuran-3,3′-indol]-2′(1′H)-one]		> 50	1000 to 10000	
CS(=O)(=O)Nc1cccc(CN2C(=O)C3(COc4cc5c(cc43)OCCO5)c3ccccc32)c1 (stereo not shown) [Example 11.94, N-{3-[(2′-oxo-2,3-dihydrospiro[furo[2,3-g][1,4]benzodioxine-8,3′-indol]-1′(2′H)-yl)methyl]phenyl}methanesulfonamide]	100 to 1000	> 50		
O=C1N(C[C@H]2CCCO2)c2cccc(-c3cccc4c3sc3ccccc34)c2C12COc1cc3c(cc12)CCO3 (stereo partly drawn) [Example 16.2, 4′-dibenzo[b,d]thiophen-4-yl-1′-[(2R)-tetrahydrofuran-2-ylmethyl]-5,6-dihydrospiro[benzo[1,2-b:5,4-b′]difuran-3,3′-indol]-2′(1′H)-one]	100 to 1000	> 50		
CN(C)Cc1cccc2c1C1(COc3cc4c(cc31)CCO4)C(=O)N2C[C@H]1CCCO1 (stereo partly drawn) [Example 11.37, 4′-[(dimethylamino)methyl]-1′-[(2R)-tetrahydrofuran-2-ylmethyl]-5,6-dihydrospiro[benzo[1,2-b:5,4-b′]difuran-3,3′-indol]-2′(1′H)-one]	1000 to 10000	< 50		
CC(C)NC(=O)N1CCC(CN2C(=O)C3(COc4cc5c(cc43)CCO5)c3ccccc32)C1 (stereo not shown) [11.62, N-(1-methylethyl)-3-[(2′-oxo-5,6-dihydrospiro[benzo[1,2-b:5,4-b′]difuran-3,3′-indol]-1′(2′H)-yl)methyl]pyrrolidine-1-carboxamide]		> 50		
CCOCCN1C(=O)C2(COc3cc4c(cc32)OCCO4)c2ccccc21 (stereo not shown) [Example 7.7]		< 50		
O=C1N(C[C@H]2CCCO2)c2ccccc2[C@]12COc1cc3c(cc12)CCO3 [Example 11.62, (3S)-1′-[(2R)-tetrahydrofuran-2-ylmethyl]-5,6-dihydrospiro[benzo[1,2-b:5,4-b′]difuran-3,3′-indol]-2′(1′H)-one]		< 50		
CCCCCCN1C(=O)C2(COc3cc4c(cc32)OCCO4)c2ccccc21 (stereo not shown) [Example 7.5, 1′-hexyl-2,3-dihydrospiro[furo[2,3-g][1,4]benzodioxine-8,3′-indol]-2′(1′H)-one]		> 50		
CC(=O)c1cccc2c1C1(COc3cc4c(cc31)OCCO4)C(=O)N2C (stereo not shown) [Example 24, 4′-acetyl-t-methyl-2,3-dihydrospiro[furo[2,3-g][1,4]benzodioxine-8,3′-indol]-2′(1′H)-one]				A (percent inhibition of less than 50% at 10 μM)
COc1ccc(Oc2cccc3c2C2(COc4cc5c(cc42)OCCO5)C(=O)N3C)cn1 (stereo not shown) [Example 16.82, 4′-[(6-methoxypyridin-3-yl)oxy]-1′-methyl-2,3-dihydrospiro[furo[2,3-g][1,4]benzodioxine-8,3′-indol]-2′(1′H)-one]		< 50		
O=C1N(CCC2CC2)c2ccccc2C12COc1cc3c(cc12)OCCO3 (stereo not shown) [Example 7.6]		< 50		
CN1C(=O)C2(COc3cc4c(cc32)OCCO4)c2c(OCc3ccc(F)cc3)cccc21 (stereo not shown) [Example 16.86, 1′-methyl-4-(4-fluorobenzyloxy)-2,3-dihydrospiro[furo[2,3-g][1,4]benzodioxine-8,3′-indol]-2′(1′H)-one]		> 50		
CN(C)C(=O)c1cccc2c1C1(COc3cc4c(cc31)OCCO4)C(=O)N2C (stereo not shown) [Example 16.78, N,N,1′-trimethyl-2′-oxo-1′,2,2′,3-tetrahydrospiro[furo[2,3-g][1,4]benzodioxine-8,3′-indole]-4′-carboxamide]		< 50		
COCCCN1C(=O)C2(COc3cc4c(cc32)OCCO4)c2ccccc21 (stereo not shown) [Example 7.9]		< 50		
CN1C(=O)C2(COc3cc4c(cc32)OCCO4)c2c(Oc3cccc(N4CCOCC4)c3)cccc21 (stereo not shown) [Example 16.81, 1′-methyl-4′-(3-morpholin-4-ylphenoxy)-2,3-dihydrospiro[furo[2,3-g][1,4]benzodioxine-8,3′-indol]-2′(1′H)-one]		> 50		
